Among the data in patent US5472942A, “Anti-thrombins” (priority 1988, dated 1995) are partial thromboplastic times values, retold here.

In the experiment the test system is human blood. The experiment can be described thus: Partial thromboplastic time. As to conditions: equivalent doses; anti-thrombin of the invention compared with hirudin. The text has this:
The anti-thrombin according to the invention and hirudin do however, have similar partial thromboplastic times for equivalent doses.

In the case of “hirudin: thrombin-specific polypeptide of 65 amino acids from Hirudo medicinalis [reference compound]”, the partial thromboplastic times entry is “similar”.
